From the supplement of paper PMC10307832

How the values were obtained:
Assay in all cases: relative viability (nuclei count vs DMSO), 5 days (fraction); higher = more cells survive
[1] = compound: CC1=CC=C(C=C1)C(=O)CN2C3=C(CCCC3)SC2=N [Pifithrin_alpha] + COc1cc2c(Oc3ccc(NC(=O)C4(C(=O)Nc5ccc(F)cc5)CC4)cc3F)ccnc2cc1OCCCN1CCOCC1 [Foretinib] (partner 0.25 µM)
Summary of the method: (§1)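 Nuclei were stained with Hoechst during a one-step fixation (final 0.05% Triton X-100, 1% formaldehyde, 1 ug/ml Hoechst) carried out 5 days after dosing, then counted on 4× images. The cells, lung cancer lines in 1536-well plates, had been dosed by pin tool the day after seeding with one drug alone or a fixed anchor-drug dose plus five library-drug doses (not always all listed) in √10 steps. Relative viability is the nuclei count in treated wells divided by that in vehicle wells, and each value is the median of duplicate plates.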

[2] = compound: CC1=CC=C(C=C1)C(=O)CN2C3=C(CCCC3)SC2=N [Pifithrin_alpha] + CS(=O)(=O)CCNCc1ccc(-c2ccc3ncnc(Nc4ccc(OCc5cccc(F)c5)c(Cl)c4)c3c2)o1 [Lapatinib] (partner 2 µM)
Summary of the method: as §1

Axitinib + Tozasertib = compound: CNC(=O)c1ccccc1Sc1ccc2c(/C=C/c3ccccn3)n[nH]c2c1 [Axitinib] + Cc1cc(Nc2cc(N3CCN(C)CC3)nc(Sc3ccc(NC(=O)C4CC4)cc3)n2)n[nH]1 [Tozasertib] (partner 0.1 µM)
Summary of the method: as §1

Axitinib + Decitabine = compound: CNC(=O)c1ccccc1Sc1ccc2c(/C=C/c3ccccn3)n[nH]c2c1 [Axitinib] + Nc1ncn([C@H]2C[C@H](O)[C@@H](CO)O2)c(=O)n1 [Decitabine] (partner 2 µM)
Summary of the method: as §1

| Cell Line | relative viability ([1]; first compound 1 µM) | relative viability ([1]; first compound 3.162 µM) | relative viability ([1]; first compound 10 µM) | relative viability ([1]; first compound 31.62 µM) | relative viability ([1]; first compound 100 µM) | relative viability ([2]; first compound 1 µM) | relative viability ([2]; first compound 3.162 µM) | relative viability ([2]; first compound 10 µM) | relative viability ([2]; first compound 31.62 µM) | relative viability ([2]; first compound 100 µM) | relative viability (Axitinib + Tozasertib; first compound 0.005 µM) | relative viability (Axitinib + Tozasertib; first compound 0.01581 µM) | relative viability (Axitinib + Tozasertib; first compound 0.05 µM) | relative viability (Axitinib + Tozasertib; first compound 0.1581 µM) | relative viability (Axitinib + Tozasertib; first compound 0.5 µM) | relative viability (Axitinib + Decitabine; first compound 0.005 µM) | relative viability (Axitinib + Decitabine; first compound 0.01581 µM) | relative viability (Axitinib + Decitabine; first compound 0.05 µM) | relative viability (Axitinib + Decitabine; first compound 0.1581 µM) | relative viability (Axitinib + Decitabine; first compound 0.5 µM) |
| --- | --- | --- | --- | --- | --- | --- | --- | --- | --- | --- | --- | --- | --- | --- | --- | --- | --- | --- | --- | --- |
| LXF-289 | 1.02 | 1.05 | 0.995 | 0.888 | 1.01 | 0.912 | 0.979 | 0.85 | 0.749 | 0.837 | 0.253 | 0.175 | 0.219 | 0.253 | 0.317 | 0.388 | 0.398 | 0.353 | 0.362 | 0.395 |
| NCI-H23 | 0.9 | 1.19 | 1.08 | – | 0.872 | 1.26 | 1.13 | 1 | 0.682 | 0.839 | 0.421 | 0.431 | 0.442 | 0.44 | 0.8 | 0.327 | 0.311 | 0.346 | 0.299 | 0.325 |
| NCI-H322M | 0.91 | 1.03 | 0.964 | 0.929 | 0.839 | 0.578 | 0.621 | 0.557 | 0.635 | 0.613 | 0.453 | 0.435 | 0.432 | 0.437 | 0.527 | 0.715 | 0.667 | 0.673 | 0.675 | 0.686 |
| NCI-H358 | 0.773 | 0.777 | 0.645 | 0.467 | 0.541 | 0.507 | 0.447 | 0.486 | 0.425 | 0.429 | 0.105 | 0.0955 | 0.105 | 0.101 | 0.108 | 0.226 | 0.222 | 0.221 | 0.214 | 0.198 |
| NCI-H460 | 1.06 | 0.974 | 0.933 | 0.492 | 0.631 | 1.2 | 1.21 | 1.1 | – | 0.533 | 0.394 | 0.515 | 0.525 | 0.413 | 0.624 | 0.585 | 0.464 | 0.528 | 0.535 | 0.585 |
| NCI-H520 | 0.793 | 1.17 | 0.852 | 0.528 | 0.81 | 1.01 | 0.978 | 0.88 | 0.694 | 0.878 | 0.401 | – | 0.439 | 0.417 | 0.347 | 0.527 | 0.422 | 0.509 | 0.449 | 0.481 |
| NCI-H596 | 0.924 | 0.737 | 0.823 | 0.735 | 0.958 | 0.9 | 0.934 | 1.02 | 0.915 | 1.07 | 1.05 | 0.938 | 0.877 | 0.893 | 0.935 | 1.15 | 0.976 | 1.32 | 0.935 | 1.07 |
| NCI-H647 | 1.07 | 1.25 | 1.04 | 0.724 | 1.11 | 0.978 | 0.997 | 0.975 | – | 0.966 | 0.383 | 0.354 | 0.264 | 0.566 | 0.516 | 0.262 | 0.378 | 0.457 | 0.348 | 0.495 |
| NCI-H661 | 0.996 | 1 | 0.981 | 0.94 | 0.904 | 0.673 | 0.488 | 0.446 | 0.508 | 0.486 | 0.351 | 0.363 | 0.363 | 0.359 | 0.371 | 0.594 | 0.503 | 0.588 | 0.549 | 0.597 |
| NCI-H727 | 0.903 | 0.759 | 0.837 | – | 0.75 | 0.884 | 0.903 | 0.695 | 0.555 | 0.565 | 0.543 | 0.628 | 0.625 | 0.674 | 0.746 | 0.962 | 0.842 | 0.835 | 1.01 | 0.837 |
| NCI-H838 | 1.06 | 0.933 | 0.991 | 0.8 | 0.762 | 1.08 | 0.908 | 0.822 | 0.562 | 0.615 | 0.305 | 0.263 | 0.265 | 0.323 | 0.323 | 0.503 | 0.492 | 0.433 | 0.487 | 0.475 |
| NCI-H1355 | 0.949 | 0.743 | 0.663 | 0.587 | 0.65 | 0.765 | 0.756 | 0.699 | 0.616 | 0.702 | 0.679 | 0.587 | 0.544 | 0.54 | 0.617 | 0.35 | 0.421 | 0.32 | 0.339 | 0.373 |
| NCI-H1395 | 0.899 | 0.98 | 0.975 | 0.748 | 0.712 | – | 0.797 | 0.967 | 0.663 | 0.814 | 0.739 | 0.883 | 0.725 | 0.682 | 0.764 | 0.795 | 0.681 | 0.622 | 0.746 | 0.751 |
| NCI-H1437 | 1.4 | 1.33 | 1.21 | 0.794 | 0.93 | 0.946 | 0.809 | 0.898 | 0.507 | 0.377 | 0.403 | 0.465 | 0.406 | 0.459 | 0.511 | 0.608 | 0.594 | 0.555 | 0.59 | 0.561 |
| NCI-H1650 | – | 1.2 | 1.04 | 0.837 | 0.853 | 0.395 | 0.665 | 0.739 | 0.521 | 0.839 | 0.448 | 0.382 | 0.49 | 0.411 | 0.482 | 0.441 | 0.31 | 0.434 | 0.381 | 0.406 |
| NCI-H1651 | 0.933 | 0.775 | 0.787 | 0.583 | 0.7 | 0.633 | 0.763 | 0.865 | 0.537 | 0.741 | 0.853 | 0.701 | 0.73 | 0.876 | 0.877 | 0.576 | 0.579 | 0.611 | 0.619 | 0.594 |
